Data taken from publication PMC8016166, “Identification of a Potent and Selective 5-HT1A Receptor Agonist with In Vitro and In Vivo Antinociceptive Activity” (ACS Chemical Neuroscience, 2020).

Tests used:
[1] = target: T1, human 5-HT1AR (Homo sapiens, UniProt P08908); assay: Radioligand binding at 5-HT1A in transfected HEK293 cells; settings: for Ki / 5-HT1A pKi ± SEM: HEK293 cells transfected with human 5-HT1AR, [3H]-8-OH-DPAT, at least two independent experiments; for Ki: read-out: 5-HT1A pKi ± SEM (converted)
T1 construct: expressed in transfected cells
T1 sequence (P08908 1-422): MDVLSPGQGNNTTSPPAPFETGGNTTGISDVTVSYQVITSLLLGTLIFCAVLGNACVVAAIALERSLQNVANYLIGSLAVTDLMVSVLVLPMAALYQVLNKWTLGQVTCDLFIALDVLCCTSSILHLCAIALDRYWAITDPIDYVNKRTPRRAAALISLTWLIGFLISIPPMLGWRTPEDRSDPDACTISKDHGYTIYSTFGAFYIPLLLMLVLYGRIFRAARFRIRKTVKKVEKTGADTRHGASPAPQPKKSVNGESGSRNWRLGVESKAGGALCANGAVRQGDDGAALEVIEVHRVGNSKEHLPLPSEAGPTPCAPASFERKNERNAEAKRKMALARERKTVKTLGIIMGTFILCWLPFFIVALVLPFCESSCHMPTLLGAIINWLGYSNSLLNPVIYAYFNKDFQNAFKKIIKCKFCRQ
Experimental: (§1) HEK293 cells with stable expression of human 5-HT1A, 5-HT6, and 5-HT7b (prepared with the use of Lipofectamine 2000) were grown in Dulbecco’s Modified Eagle Medium (DMEM) containing 10% dialyzed fetal bovine serum (FBS) and 500 μg/mL G418 sulfate. Liver hepatocellular carcinoma Hep-G2 cells were cultured in DMEM enriched by 10% FBS, 2 mM L-glutamine, 100 IU/mL penicillin, and 50 μg/mL streptomycin (all from Sigma-Aldrich Corporation, a division of Merck KGaA, Darmstadt, Germany). Cell lines were maintained at 37 °C in a humidified atmosphere with 5% CO2. For membrane preparation, the cells were subcultured in 150 cm^2 flasks, grown to 90% confluence, washed twice with prewarmed to 37 °C phosphate buffered saline (PBS), and pelleted by centrifugation (200g) in PBS containing 0.1 mM EDTA and 1 mM dithiothreitol. Prior to membrane preparation, pellets were stored at −80 °C.
The cell pellets were thawed and homogenized in 10 volumes of assay buffer using an Ultra Turrax tissue homogenizer and centrifuged twice at 35 000g for 15 min at 4 °C, with incubation for 15 min at 37 °C in between. The composition of the assay buffers was as follows: for 5-HT1AR: 50 mM Tris HCl, 0.1 mM EDTA, 4 mM MgCl2, 10 μM pargyline, and 0.1% ascorbate; for 5-HT6R: 50 mM Tris HCl, 0.5 mM EDTA, and 4 mM MgCl2; for 5-HT7bR: 50 mM Tris HCl, 4 mM MgCl2, 10 μM pargyline, and 0.1% ascorbate. All the assays were incubated in a total volume of 200 μL in 96-well microtiter plates for 1 h at 37 °C, except 5-HT1AR which was incubated at room temperature. The process of equilibration was terminated by rapid filtration through Unifilter plates with a 96-well cell harvester and radioactivity retained on the filters was quantified on a Microbeta plate reader (PerkinElmer, USA). […] Nonspecific binding was defined with 10 μM of 5-HT in 5-HT1AR and 5-HT7R binding experiments, where 10 μM of methiothepine was used in 5-HT6R assays. Each compound was tested in triplicate at 7 concentrations (10^–10–10^–4 M). The results were analyzed with one-way ANOVA followed by the Bonferroni’s posthoc test. The inhibition constants (pKi) were calculated from the Cheng-Prusoff equation.[46] The results were expressed as means of at least two separate experiments.

[2] = target: 5-HT1AR; parameters: method as in PMID 30043643; settings: previous work; cited from earlier work
[3] = tested on: α1; parameters: method as in PMID 30043643; settings: previous work; cited from earlier work
[4] = tested on: 5-HT1AR; parameters: method as in PMID 30043643; settings: previous work, cited from earlier work; for potency pD2: agonist, GTPγS assay
[5] = tested on: Hep-G2 cells; assay: Hep-G2 cell viability (MTT assay); type: cell-based; settings: 72 h; for hepatic cell viability vs untreated control cells: 50 μM; for hepatic cell viability (toxicity): concentrations ≤10 μM
Experimental: as §1
Liver hepatocellular carcinoma Hep-G2 cells were seeded in 96-well plates (1 × 10^4 cells/well) and maintained under continuous stimulation with increasing concentrations (nM−μM range) of the tested compounds. 200 mM ethanol and 5% Triton X-100 (Sigma-Aldrich Corporation) served as controls. The viability of cells was assessed by MTT assay as previously described.[66],[67] The absorbance was detected by a Victor3 plate reader (PerkinElmer Inc., Waltham, MA, USA) and represented by box and whiskers plot, as a measure of cell viability. Differences between values from treated and untreated cells were evaluated by two-ANOVA followed by Dunnett’s multiple comparison test (p < 0.05).

| SMILES | Ki [1] [nM] | 5-HT1AR affinity pKi [2] | selectivity 5-HT1A/α1 [3] | potency pD2 [4] | relative effectiveness (Emax) [4] [%] | 5-HT1A pKi ± SEM [1] | hepatic cell viability vs untreated control cells [5] | hepatic cell viability (toxicity) [5] | binding affinity at 5-HT1AR, (S)-2 vs (R)-2 [1] [fold] | hepatic cell viability ([5]; 10 and 5 μM) |
| --- | --- | --- | --- | --- | --- | --- | --- | --- | --- | --- |
| c1ccc(C2(c3ccccc3)OCC(CNCCOc3ccccc3-c3ccncc3)O2)cc1 (racemic) [rac-1, N-[(2,2-diphenyl-1,3-dioxolan-4-yl)methyl]-2-[2-(pyridin-4-yl)phenoxy]ethan-1-ammonium hydrogenoxalate] | 9.12 | 9.2 | 135 | 8.83 |  |  |  |  |  |  |
| Cn1cncc1-c1ccccc1OCCNCC1COC(c2ccccc2)(c2ccccc2)O1 (racemic) [rac-2, N-((2,2-diphenyl-1,3-dioxolan-4-yl)methyl)-2-(2-(1-methyl-1H-imidazol-5-yl)phenoxy)ethan-1-ammonium hydrogenoxalate] | 7.41 | 8.98 | 132 | 5.46 | 240 |  |  |  |  |  |
| c1ccc(C2(c3ccccc3)OC[C@@H](CNCCOc3ccccc3-c3ccncc3)O2)cc1 [(R)-1, N-[(2,2-Diphenyl-1,3-dioxolan-4-yl)methyl]-2-[2-(pyridin-4-yl)phenoxy]ethan-1-ammonium hydrogenoxalate] |  |  |  |  |  | 8.35 ± 0.9 | negatively impacted cell viability | very low toxicity |  |  |
| Cn1cncc1-c1ccccc1OCCNC[C@@H]1COC(c2ccccc2)(c2ccccc2)O1 [(R)-2, N-((2,2-Diphenyl-1,3-dioxolan-4-yl)methyl)-2-(2-(1-methyl-1H-imidazol-5-yl)phenoxy)ethan-1-ammonium hydrogenoxalate] | 12 |  |  |  |  |  | negatively impacted cell viability | very low toxicity |  |  |
| c1ccc(C2(c3ccccc3)OC[C@H](CNCCOc3ccccc3-c3ccncc3)O2)cc1 [(S)-1, N-[(2,2-Diphenyl-1,3-dioxolan-4-yl)methyl]-2-[2-(pyridin-4-yl)phenoxy]ethan-1-ammonium hydrogenoxalate] |  |  |  |  |  | 8.03 ± 0.10 | no effect | very low toxicity |  |  |
| Cn1cncc1-c1ccccc1OCCNC[C@H]1COC(c2ccccc2)(c2ccccc2)O1 [(S)-2, N-((2,2-Diphenyl-1,3-dioxolan-4-yl)methyl)-2-(2-(1-methyl-1H-imidazol-5-yl)phenoxy)ethan-1-ammonium hydrogenoxalate] | 4.07 |  |  |  |  |  | negatively impacted cell viability |  | 3 | decreased cell viability |
